Measured values from US12104178B2, “DHFR tunable protein regulation” (Obsidian Therapeutics, Inc., priority 2017, dated 2024).
Where “and” joins values, the source holds several entries; their conditions need not be identical. Equal entries are not always repeated. Entries after “also recorded” stand apart in the source; their conditions may differ.

What was measured:
HCT-116 cells [1] = assay: TMP dose response of IL15-IL15Ra surface expression (FACS); assay type: cell-based, human; settings: 24 h
Description: Surface expression of IL15-IL15Ra fusion constructs was quantified by FACS using IL15Ra-PE antibody.
Surface expression of IL15-IL15Ra fusion construct was quantified by FACS using IL15Ra-PE antibody.

HCT116 cells [2] = assay: IL15 shedding into media, ELISA and MSD; assay type: cell-based, human; settings: TMP doses
Procedure: To test if IL15 is shed into the media, supernatant from HCT116 cells expressing IL15-IL15Ra fusion constructs was subject to immunoassays such as ELISA and MSD (Rockville, Maryland). In FIG. 54B, OD indicates optical density. IL15 was measured in the media of cells expressing IL15-IL15Ra fusion constructs.

primary T cells = assay: Regulated expression of IL15-IL15Ra in T cells (FACS); assay type: cell-based, human
Procedure: The transduction was carried out at two different lentivirus concentrations, 5 μl and 20 μl for the DD regulated construct using Lentiboost™ (Sirion Biotech, Germany). […] Samples were analyzed with an anti IL15Ra antibody using FACS. Additional controls samples such as cells treated with Lentiboost only, untransduced cells treated with DMSO or TMP, and Isotype controls were included in the FACS analysis. […] In both figures, DMSO-A and TMP-A represent cells treated with 5 μl of lentivirus and DMSO-B and TMP-B represent cells treated with 20 μl of lentivirus. […] Additionally, very low levels of IL15Ra were detected in the DMSO treated samples under the same conditions as well as in the untransduced T cells.
IL15Ra expression was measured using FACS.

HCT116 tumors = assay: HCT116 OT-IL15-009 tumors in mice, IL15-IL15Ra western blot and TMP levels; assay type: in vivo, BALB/c nude mice; settings: TMP 100 then 300 mg/kg orally twice a day, 17 days
HCT116 cells [3] = assay: IL15-IL15Ra in vivo tumor study (xenograft); settings: 5 million HCT116 cells s.c., nude mice
Procedure: The functional capability of IL15-IL15Ra constructs was tested in vivo in xenograft assays. The experiment was designed to test the hypothesis that pulsatile expression of IL15-IL15Ra fusion proteins from cancer cell lines such as HCT116, in mice may stimulate the mouse's NK cells to attack the tumor leading to tumor growth inhibition. […] Tumors were allowed to develop over a period of 22 days.
Mice injected with OT-IL15-009 expressing cells were left untreated, or treated with vehicle control or TMP.

HCT116 cells [4] = assay: IL15Ra immunoblot, TMP dose response; assay type: cell-based, human; settings: TMP 10, 33, 100 μM, 24 h
Description: Cell lysates were obtained and immunoblotted with anti IL15Ra antibody.
Cell lysates were immunoblotted with anti IL15Ra antibody.

CD4 positive T cells = assay: Kinetics of IL15Ra surface expression in T cells with TMP (Table 92); assay type: cell-based, human; settings: for Stabilization ratio: TMP vs DMSO;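 on all read-outs here: CD4 positive T cells, CD3/CD28 bead-activated and lentivirally transduced with DD-IL15-IL15Ra, read for surface IL15Ra positivity, stabilization ratio is fold change of ligand over DMSO, untransduced cells as negative control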
HEK-293T cells = assay: IL15 western blot of DD IL15-IL15Ra, transient transfection; assay type: cell-based, human; settings: 10 μM Trimethoprim or 1 μM Shield-1, 24 h
Procedure: To test ligand dependent IL15-IL15Ra production, 1 million HEK-293T cells were plated in a 6-well plate in growth media containing DMEM and 10 FBS and incubated overnight at 37° C., 5% CO2. […] Cells were harvested and IL15 levels are analyzed via western blotting using human IL15 antibody (Abcam, Cambridge, UK).

HCT-116 cells [5] = assay: Time course of IL15-IL15Ra surface expression with TMP; assay type: cell-based, human; settings: 10 μM TMP
Procedure: The time course of ligand dependent stabilization of IL15-IL15Ra fusion constructs was measured in HCT-116 cells.

HEK293T cells = assay: Surface IL15 and IL15Ra FACS, transient transfection; assay type: cell-based, human; settings: Shield-1 or Trimethoprim
Procedure: 48 hours after transfection, cells were analyzed using FACS.

“OT-IL15-009: IL15-IL15Ra fusion with ecDHFR (R12Y, Y100I) DD” was tested, and the “Median Fluorescence Intensity, surface IL15-IL15Ra” value (“Median Fluorescence Intensity” for short) (HCT-116 cells [1]; DMSO) was 1260, the “Median Fluorescence Intensity” value (HCT-116 cells [1]; TMP 0.01 μM) was 1384 and the “Median Fluorescence Intensity” value (HCT-116 cells [1]; TMP 0.02 μM) was 1492. For the same substance, the “Median Fluorescence Intensity” value (HCT-116 cells [1]; TMP 0.05 μM) was 1947, the “Median Fluorescence Intensity” value (HCT-116 cells [1]; TMP 0.14 μM) was 2741 and the “Median Fluorescence Intensity” value (HCT-116 cells [1]; TMP 0.41 μM) was 3360. The “Median Fluorescence Intensity” value (HCT-116 cells [1]; TMP 3.7 μM) was 4265, the “Median Fluorescence Intensity” value (HCT-116 cells [1]; TMP 11.11 μM) was 4267 and the “Median Fluorescence Intensity” value (HCT-116 cells [1]; TMP 33.33 μM) was 4485. For the same substance, the “Median Fluorescence Intensity” value (HCT-116 cells [1]; TMP 100 μM) was 4633, the “Median Fluorescence Intensity” value (HCT-116 cells [1]; TMP […]) was 4014 and the “IL15 levels in the media (FIG. 54B, 54C)” value (HCT116 cells [2]) was “TMP dose dependent increase in IL15 levels detected in the media”. For the same substance, the “IL15Ra expression in T cells (FIG. 35)” value (primary T cells; 10 μM TMP 24/48 h or 0.156-160 μM 24 h) was “increase in the expression of IL15Ra in T cells with both doses of lentivirus used; also recorded: An increase in the percentage of IL15Ra cells with increasing doses of TMP was observed”, the “% Positive cells, IL15Ra positive” value (primary T cells; T cells, surface expression) was 15.8% and the “% Positive cells, IL15 and IL15Ra positive” value (primary T cells; T cells, surface expression) was 0.51%. The “% Positive cells, IL15 positive” value (primary T cells; T cells, surface expression) was 0.60%, the “IL15-IL15Ra in tumors by western blot (FIG. 49)” value (HCT116 tumors) was “elevated levels of IL15-IL15Ra expression, compared to tumors treated with the vehicle” and the “Tumor growth (FIG. 55)” value (HCT116 cells [3]) was “mice treated with TMP had smaller tumors than mice of the other two groups”. The “IL15Ra expression by immunoblot (FIG. 26, 27, 54A)” value (HCT116 cells [4]) was “virtually undetectable in the absence of TMP, and addition of increasing doses of TMP resulted in an increase in IL15Ra levels”, the “Percentage of IL15Ra positive cells” value (CD4 positive T cells; 100 μM TMP) was 16.6% and 16% and the “Proportion of CD4 T cells with surface IL15Ra over time (FIG. 48)” value (CD4 positive T cells; 100 μM TMP, 1-24 h) was “from 4 hrs after TMP treatment, the cells transduced with the OT-IL15-009 construct and treated with TMP exhibited an increased proportion of cells with surface expression of IL15Ra”. The “percentage of IL15Ra positive CD4 positive T cells, TMP” value (“percentage … TMP” below) (CD4 positive T cells; 100 μM TMP, 1 hours) was 1.86, the “percentage … TMP” value (CD4 positive T cells; 100 μM TMP, 2 hours) was 2.27 and the “percentage … TMP” value (CD4 positive T cells; 100 μM TMP, 4 hours) was 4.01. For the same substance, the “percentage … TMP” value (CD4 positive T cells; 100 μM TMP, 6 hours) was 5.85, the “percentage … TMP” value (CD4 positive T cells; 100 μM TMP, 8 hours) was 7.09 and the “percentage … TMP” value (CD4 positive T cells; 100 μM TMP, 15 hours) was 12.53. For the same substance, the “percentage … TMP” value (CD4 positive T cells; 100 μM TMP, 22 hours) was 14.57, the “percentage … TMP” value (CD4 positive T cells; 100 μM TMP, 24 hours) was 13.75 and the “percentage of IL15Ra positive CD4 positive T cells, DMSO” value (from here on “percentage … DMSO”) (CD4 positive T cells; 1 hours) was 2.03. For the same substance, the “percentage … DMSO” value (CD4 positive T cells; 2 hours) was 2.12, the “percentage … DMSO” value (CD4 positive T cells; 4 hours) was 1.99 and the “percentage … DMSO” value (CD4 positive T cells; 6 hours) was 1.87. For the same substance, the “percentage … DMSO” value (CD4 positive T cells; 8 hours) was 2.14, the “percentage … DMSO” value (CD4 positive T cells; 15 hours) was 2.46 and the “percentage … DMSO” value (CD4 positive T cells; 22 hours) was 2.78. The “percentage … DMSO” value (CD4 positive T cells; 24 hours) was 2.07, the “Stabilization ratio” value (CD4 positive T cells; 1 hours) was 0.92 and the “Stabilization ratio” value (CD4 positive T cells; 4 hours) was 2.02. For the same substance, the “Stabilization ratio” value (CD4 positive T cells; 6 hours) was 3.13, the “Stabilization ratio” value (CD4 positive T cells; 8 hours) was 3.31 and the “Stabilization ratio” value (CD4 positive T cells; 15 hours) was 5.09. For the same substance, the “Stabilization ratio” value (CD4 positive T cells; 22 hours) was 5.24, the “Stabilization ratio” value (CD4 positive T cells; 24 hours) was 6.64 and the “Percentage of IL15Ra positive cells” value (CD4 positive T cells; untreated T cells) was 1.68% and 1%. The “IL15 stabilization by western blot (FIG. 24A)” value (HEK-293T cells) was “strong ligand (Trimethoprim) dependent stabilization of IL15”, the “MFI, surface IL15-IL15Ra” value (HCT-116 cells [5]; 0 h) was 4004 and the “MFI, surface IL15-IL15Ra” value (HCT-116 cells [5]; 12 h) was 7054. For the same substance, the “MFI, surface IL15-IL15Ra” value (HCT-116 cells [5]; 16 h) was 9390, the “MFI, surface IL15-IL15Ra” value (HCT-116 cells [5]; 24 h) was 14056 and the “MFI, surface IL15-IL15Ra” value (HCT-116 cells [5]; 48 h) was 28644. For the same substance, the “MFI, surface IL15-IL15Ra” value (HCT-116 cells [5]; 72 h) was 35303 and the “Surface expression of IL15 and IL15Ra (FIG. 24B, 24C)” value (HEK293T cells) was “strong ligand (Trimethoprim) dependent surface expression of IL15 and IL15Ra”.
